Data taken from PubChem BioAssay (NCI).
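Grown in 96-well plates, cells were treated for 48 hours with each compound at five concentrations. Insufficient inhibition: endpoint recorded as highest concentration tested. The concentration for 50% growth inhibition is given as GI50. The concentration for full growth arrest is given as TGI.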

Tests used:
Experiment in all cases: growth of human tumour cells (NCI), 48 h
MOLT-4 leukemia = tested on: MOLT-4 leukemia
MDA-MB-231 breast = tested on: MDA-MB-231 breast
NCI-H460 lung = tested on: NCI-H460 lung
SK-OV-3 ovarian = tested on: SK-OV-3 ovarian
OVCAR-8 ovarian = tested on: OVCAR-8 ovarian
IGROV1 ovarian = tested on: IGROV1 ovarian
COLO 205 colon = tested on: COLO 205 colon
M14 melanoma = tested on: M14 melanoma
PC-3 prostate = tested on: PC-3 prostate
OVCAR-5 ovarian = tested on: OVCAR-5 ovarian
HCT-116 colon = tested on: HCT-116 colon
T-47D breast = tested on: T-47D breast
KM12 colon = tested on: KM12 colon
ACHN renal = tested on: ACHN renal
OVCAR-4 ovarian = tested on: OVCAR-4 ovarian
SW-620 colon = tested on: SW-620 colon
MCF7 breast = tested on: MCF7 breast
SF-295 CNS = tested on: SF-295 CNS
A549 NSCLC = tested on: A549 NSCLC
SN12C renal = tested on: SN12C renal
RPMI-8226 leukemia = tested on: RPMI-8226 leukemia
UO-31 renal = tested on: UO-31 renal
786-0 renal = tested on: 786-0 renal
NCI-H226 lung = tested on: NCI-H226 lung
EKVX NSCLC = tested on: EKVX NSCLC
MALME-3M melanoma = tested on: MALME-3M melanoma
NCI/ADR-RES ovarian = tested on: NCI/ADR-RES ovarian
CCRF-CEM leukemia = tested on: CCRF-CEM leukemia
SK-MEL-28 melanoma = tested on: SK-MEL-28 melanoma
K-562 leukemia = tested on: K-562 leukemia
HT29 colon = tested on: HT29 colon
SR leukemia = tested on: SR leukemia
HCC-2998 colon = tested on: HCC-2998 colon
U251 CNS = tested on: U251 CNS
LOX IMVI melanoma = tested on: LOX IMVI melanoma
OVCAR-3 ovarian = tested on: OVCAR-3 ovarian
HOP-92 NSCLC = tested on: HOP-92 NSCLC
CAKI-1 renal = tested on: CAKI-1 renal
MDA-MB-435 = tested on: MDA-MB-435
SF-268 CNS = tested on: SF-268 CNS
UACC-62 melanoma = tested on: UACC-62 melanoma
HCT-15 colon = tested on: HCT-15 colon
HS 578T breast = tested on: HS 578T breast
HOP-62 NSCLC = tested on: HOP-62 NSCLC
DU-145 prostate = tested on: DU-145 prostate
TK-10 renal = tested on: TK-10 renal
SK-MEL-5 melanoma = tested on: SK-MEL-5 melanoma
SF-539 CNS = tested on: SF-539 CNS
RXF 393 renal = tested on: RXF 393 renal
A498 renal = tested on: A498 renal
SK-MEL-2 melanoma = tested on: SK-MEL-2 melanoma
BT-549 breast = tested on: BT-549 breast
UACC-257 melanoma = tested on: UACC-257 melanoma
SNB-19 CNS = tested on: SNB-19 CNS
HL-60(TB) leukemia = tested on: HL-60(TB) leukemia
SNB-75 CNS = tested on: SNB-75 CNS
NCI-H522 lung = tested on: NCI-H522 lung

`CCNC(=O)N1CCc2cc(OC)c(OCCc3ccc(OC)nc3)cc2C1c1ccc(C)cc1C` (centres undefined) was tested, and the GI50 (MOLT-4 leukemia) was 416 nM, the TGI (MOLT-4 leukemia) was 35500 nM and the GI50 (MDA-MB-231 breast) was 1140 nM. It also gave a TGI (MDA-MB-231 breast) of 30200 nM, a GI50 (NCI-H460 lung) of 241 nM and a TGI (NCI-H460 lung) of 6360 nM. For the same compound, the GI50 (SK-OV-3 ovarian) was 2670 nM, the TGI (SK-OV-3 ovarian) was > 100000 nM and the GI50 (OVCAR-8 ovarian) was 675 nM. For the same compound, the TGI (OVCAR-8 ovarian) was > 43100 nM, the GI50 (IGROV1 ovarian) was 743 nM and the TGI (IGROV1 ovarian) was > 100000 nM. It also gave a GI50 (COLO 205 colon) of 792 nM, a TGI (COLO 205 colon) of 4170 nM and a GI50 (M14 melanoma) of 722 nM. For the same compound, the TGI (M14 melanoma) was 19300 nM, the GI50 (PC-3 prostate) was 719 nM and the TGI (PC-3 prostate) was > 71800 nM. For the same compound, the GI50 (OVCAR-5 ovarian) was 2020 nM, the TGI (OVCAR-5 ovarian) was > 100000 nM and the GI50 (HCT-116 colon) was 299 nM. The TGI (HCT-116 colon) was 20700 nM, the GI50 (T-47D breast) was 2680 nM and the TGI (T-47D breast) was 64500 nM. The GI50 (KM12 colon) was 634 nM, the TGI (KM12 colon) was > 40400 nM and the GI50 (ACHN renal) was 662 nM. The TGI (ACHN renal) was 91100 nM, the GI50 (OVCAR-4 ovarian) was 3300 nM and the TGI (OVCAR-4 ovarian) was > 100000 nM. The GI50 (SW-620 colon) was 466 nM, the TGI (SW-620 colon) was > 100000 nM and the GI50 (MCF7 breast) was 443 nM. The TGI (MCF7 breast) was > 100000 nM, the GI50 (SF-295 CNS) was 574 nM and the TGI (SF-295 CNS) was 8800 nM. For the same compound, the GI50 (A549 NSCLC) was 984 nM, the TGI (A549 NSCLC) was > 100000 nM and the GI50 (SN12C renal) was 1100 nM. It also gave a TGI (SN12C renal) of 15400 nM, a GI50 (RPMI-8226 leukemia) of 531 nM and a TGI (RPMI-8226 leukemia) of 3580 nM. For the same compound, the GI50 (UO-31 renal) was 929 nM, the TGI (UO-31 renal) was > 100000 nM and the GI50 (786-0 renal) was 687 nM. The TGI (786-0 renal) was > 100000 nM, the GI50 (NCI-H226 lung) was 1730 nM and the TGI (NCI-H226 lung) was 11400 nM. The GI50 (EKVX NSCLC) was 4030 nM, the TGI (EKVX NSCLC) was > 100000 nM and the GI50 (MALME-3M melanoma) was 1350 nM. The TGI (MALME-3M melanoma) was 50200 nM, the GI50 (NCI/ADR-RES ovarian) was 659 nM and the TGI (NCI/ADR-RES ovarian) was 38800 nM. The GI50 (CCRF-CEM leukemia) was 519 nM, the TGI (CCRF-CEM leukemia) was 55000 nM and the GI50 (SK-MEL-28 melanoma) was 873 nM. The TGI (SK-MEL-28 melanoma) was 32100 nM, the GI50 (K-562 leukemia) was 259 nM and the TGI (K-562 leukemia) was > 100000 nM. It also gave a GI50 (HT29 colon) of 573 nM, a TGI (HT29 colon) of 10500 nM and a GI50 (SR leukemia) of 207 nM. The TGI (SR leukemia) was 2960 nM, the GI50 (HCC-2998 colon) was 1560 nM and the TGI (HCC-2998 colon) was 17800 nM. The GI50 (U251 CNS) was 636 nM, the TGI (U251 CNS) was 17500 nM and the GI50 (LOX IMVI melanoma) was 308 nM. It also gave a TGI (LOX IMVI melanoma) of 5410 nM, a GI50 (OVCAR-3 ovarian) of 1340 nM and a TGI (OVCAR-3 ovarian) of 24300 nM. The GI50 (HOP-92 NSCLC) was 4520 nM, the TGI (HOP-92 NSCLC) was 27400 nM and the GI50 (CAKI-1 renal) was 611 nM. For the same compound, the TGI (CAKI-1 renal) was > 100000 nM, the GI50 (MDA-MB-435) was 370 nM and the TGI (MDA-MB-435) was 5890 nM. For the same compound, the GI50 (SF-268 CNS) was 927 nM, the TGI (SF-268 CNS) was 50100 nM and the GI50 (UACC-62 melanoma) was 430 nM. For the same compound, the TGI (UACC-62 melanoma) was 12200 nM, the GI50 (HCT-15 colon) was 156 nM and the TGI (HCT-15 colon) was > 60200 nM. For the same compound, the GI50 (HS 578T breast) was 1530 nM, the TGI (HS 578T breast) was 10600 nM and the GI50 (HOP-62 NSCLC) was 1350 nM. The TGI (HOP-62 NSCLC) was > 37500 nM, the GI50 (DU-145 prostate) was 858 nM and the TGI (DU-145 prostate) was 24000 nM. For the same compound, the GI50 (TK-10 renal) was 5000 nM, the TGI (TK-10 renal) was > 100000 nM and the GI50 (SK-MEL-5 melanoma) was 839 nM. The TGI (SK-MEL-5 melanoma) was 2710 nM, the GI50 (SF-539 CNS) was 501 nM and the TGI (SF-539 CNS) was 5230 nM. It also gave a GI50 (RXF 393 renal) of 1070 nM, a TGI (RXF 393 renal) of 15000 nM and a GI50 (A498 renal) of 1390 nM. For the same compound, the TGI (A498 renal) was 14300 nM, the GI50 (SK-MEL-2 melanoma) was 3330 nM and the TGI (SK-MEL-2 melanoma) was 16400 nM. It also gave a GI50 (BT-549 breast) of 1550 nM, a TGI (BT-549 breast) of 7450 nM and a GI50 (UACC-257 melanoma) of 2290 nM. The TGI (UACC-257 melanoma) was 50500 nM, the GI50 (SNB-19 CNS) was 837 nM and the TGI (SNB-19 CNS) was > 100000 nM. It also gave a GI50 (HL-60(TB) leukemia) of 651 nM, a TGI (HL-60(TB) leukemia) of 3820 nM and a GI50 (SNB-75 CNS) of 667 nM. For the same compound, the TGI (SNB-75 CNS) was > 23500 nM, the GI50 (NCI-H522 lung) was 523 nM and the TGI (NCI-H522 lung) was 2720 nM.
